Assay [1] has as its system Rattus norvegicus. The assay can be described thus: Inhibitory effect of perorally administered compound (1.0 mg/kg) on gastric lesions induced by ethanol in 9 rats with observed lession index (100.5 mm) was determined. Format: functional, Stomach.
Assay [2] has as its system Rattus norvegicus. Briefly: Inhibitory effect of perorally administered compound (1.0 mg/kg) on gastric lesions induced by ethanol in 5 rats with observed lession index (68.7 mm) was determined. It counts as functional, Stomach.
The subject of assay [3] is Rattus norvegicus. Briefly: Inhibitory effect of perorally administered compound (0.2 mg/kg) on gastric lesions induced by ethanol in 5 rats with observed lession index (91.3 mm) was determined. It counts as functional, Stomach.
Assay [4] deals with Rattus norvegicus. The assay can be described thus: Inhibitory effect of perorally administered compound (1.0 mg/kg) on gastric lesions induced by ethanol in 9 rats with observed lession index (88.1 mm) was determined. It counts as functional, Stomach.
Assay [5] has as its system Rattus norvegicus. The assay can be described thus: Inhibitory effect of perorally administered compound (0.0125 mg/Kg) on gastric lesions induced by ethanol in 5 rats with observed lession index (129.6 mm) was determined. Format: functional, Stomach.
Assay [6] relates to Rattus norvegicus. The assay can be described thus: Inhibitory effect of perorally administered compound (0.025 mg/kg) on gastric lesions induced by ethanol in 5 rats with observed lession index (84.8 mm) was determined. It counts as functional, Stomach.
Assay [7] has as its system Rattus norvegicus. The assay can be described thus: Inhibitory effect of perorally administered compound (0.05 mg/kg) on gastric lesions induced by ethanol in 5 rats with observed lession index (48.8 mm) was determined. It counts as functional, Stomach.
The subject of assay [8] is Rattus norvegicus. Briefly: Inhibitory effect of perorally administered compound (0.1 mg/kg) on gastric lesions induced by ethanol in 5 rats with observed lession index (29.1 mm) was determined. Format: functional, Stomach.
Assay [9] relates to Rattus norvegicus. Briefly: Inhibitory effect of perorally administered compound (0.2 mg/kg) on gastric lesions induced by ethanol in 5 rats with observed lession index (12.6 mm) was determined. Format: functional, Stomach.
For assay [10], the system named is Rattus norvegicus. The assay can be described thus: Inhibitory effect of perorally administered compound (0.5 mg/kg) on gastric lesions induced by ethanol in 7 rats with observed lession index (0.0 mm) was determined. Format: functional, Stomach.
In assay [11] the test system is Rattus norvegicus. The assay can be described thus: Gastroprotective effect of compound was determined in rats at a peroral dose of 0.0125 mg/kg. Format: functional. As to conditions: route oral.
Assay [12] has as its system Rattus norvegicus. The assay can be described thus: Inhibitory effect of perorally administered compound (0.0005 mg/kg) on gastric lesions induced by ethanol in 10 rats with observed lession index (49.2 mm) was determined. It counts as functional, Stomach.
Assay [13] has as its system Rattus norvegicus. Briefly: Inhibitory effect of perorally administered compound (0.001 mg/kg) on gastric lesions induced by ethanol in 9 rats with observed lession index (12.1 mm) was determined. It counts as functional, Stomach.
Assay [14] concerns Rattus norvegicus. The assay can be described thus: Gastroprotective effect of compound was determined in rats at a concentration of 0.05 mg/kg po. It counts as functional.
In assay [15] the test system is Rattus norvegicus. The assay can be described thus: Inhibitory effect of perorally administered compound (0.5 mg/kg) on gastric lesions induced by ethanol in 7 rats with observed lession index (17.1 mm) was determined. It counts as functional, Stomach.
The test system of assay [16] is Rattus norvegicus. The assay can be described thus: Inhibitory effect of perorally administered compound (1.0 mg/kg) on gastric lesions induced by ethanol in 6 rats with observed lession index (8.5 mm) was determined. It counts as functional, Stomach.
The subject of assay [17] is Rattus norvegicus. Briefly: Inhibitory effect of perorally administered compound (0.05 mg/kg) on gastric lesions induced by ethanol in 7 rats with observed lession index (120 mm) was determined. Format: functional, Stomach.
In assay [18] the test system is Rattus norvegicus. The assay can be described thus: Inhibitory effect of perorally administered compound (0.1 mg/kg) on gastric lesions induced by ethanol in 7 rats with observed lession index (90.3 mm) was determined. Format: functional, Stomach.
Assay [19] concerns Rattus norvegicus. Briefly: Inhibitory effect of perorally administered compound (0.2 mg/kg) on gastric lesions induced by ethanol in 7 rats with observed lession index (62.7 mm) was determined. Format: functional, Stomach.
For assay [20], the system named is Rattus norvegicus. The assay can be described thus: Gastroprotective effect of compound was determined in rats at a concentration of 0.1 mg/kg po. Format: functional.
Assay [21] relates to Rattus norvegicus. Briefly: Inhibitory effect of perorally administered compound (0.5 mg/kg) on gastric lesions induced by ethanol in 7 rats with observed lession index (4.3 mm) was determined. Format: functional, Stomach.
In assay [22] the test system is Rattus norvegicus. The assay can be described thus: Inhibitory effect of perorally administered compound (1.0 mg/kg) on gastric lesions induced by ethanol in 6 rats with observed lession index (0.9 mm) was determined. It counts as functional, Stomach.
Assay [23] relates to Rattus norvegicus. Briefly: Inhibitory effect of perorally administered compound (0.1 mg/kg) on gastric lesions induced by ethanol in 7 rats with observed lession index (95.0 mm) was determined. Format: functional, Stomach.
The test system of assay [24] is Rattus norvegicus. Briefly: Inhibitory effect of perorally administered compound (0.2 mg/kg) on gastric lesions induced by ethanol in 7 rats with observed lession index (50.0 mm) was determined. It counts as functional, Stomach.
The test system of assay [25] is Rattus norvegicus. Briefly: Inhibitory effect of perorally administered compound (1.0 mg/kg) on gastric lesions induced by ethanol in 6 rats with observed lession index (103.7 mm) was determined. It counts as functional, Stomach.
Assay [26] deals with Rattus norvegicus. The assay can be described thus: Inhibitory effect of perorally administered compound (1.0 mg/kg) on gastric lesions induced by ethanol in 6 rats with observed lession index (91 mm) was determined. Format: functional, Stomach.
In assay [27] the test system is Rattus norvegicus. Briefly: Inhibitory effect of perorally administered compound (1.0 mg/kg) on gastric lesions induced by ethanol in 6 rats with observed lession index (76.4 mm) was determined. It counts as functional, Stomach.

`CC1(C)CCC[C@@]2(C)C1CC=C(CO)[C@@H]2CO` (some centres not stated) displayed an Inhibition in the assay with Rattus norvegicus [1] of 27.6%.
As for `CO[C@@H]1OCC2=CCC3C(C)(C)CCC[C@]3(C)[C@H]21` (some centres not stated), the Inhibition in the assay on Rattus norvegicus [2] was determined as 54.6%; in the assay on Rattus norvegicus [3] it was 39.6%.
Turning to `CC(=O)OCC1=CCC2C(C)(C)CCC[C@]2(C)[C@H]1COC(C)=O` (some centres not stated), in the assay on Rattus norvegicus [4], the Inhibition was determined as 36.5%.
For `CC1(C)CCC[C@]2(C)[C@@H](C=O)C(C=O)=CC[C@@H]12` [POLYGODIAL], the Inhibition with Rattus norvegicus [5] came to 23.5%; with Rattus norvegicus [6] it was 50%; in the assay on Rattus norvegicus [7], 71.2%; in the assay with Rattus norvegicus [8], 82.8%; in the assay with Rattus norvegicus [9], 92.6%; in the assay on Rattus norvegicus [10], 100%. In the assay on Rattus norvegicus [11], this compound displayed a 50% effective dose (ED50) of 0.028 mg/kg.
`CCCCC(C)(C)[C@H](O)/C=C/C1[C@H](O)CC(=O)[C@@H]1C/C=C\CCCC(=O)O` (some centres not stated): the Inhibition is 64.5% in the assay with Rattus norvegicus [12] and 91.3% in the assay on Rattus norvegicus [13].
`CO[C@H]1O[C@@H](OC)[C@H]2C1=CCC1C(C)(C)CCC[C@@]12C` (some centres not stated): in the assay on Rattus norvegicus [14], the 50% effect level (ED50) was put at a dose of 0.17 mg/kg. Also, the Inhibition in the assay on Rattus norvegicus [15] is given as 87.4%; with Rattus norvegicus [16] it was 93.7%; in the assay with Rattus norvegicus [17], 11.5%; with Rattus norvegicus [18], 33.4%; in the assay with Rattus norvegicus [19], 53.8%.
For `CO[C@@H]1O[C@@H](OC)[C@H]2C1=CCC1C(C)(C)CCC[C@@]12C` (some centres not stated), in the assay on Rattus norvegicus [20], the 50% effect level (ED50) was put at a dose of 0.15 mg/kg. In addition, the Inhibition in the assay on Rattus norvegicus [21] stood at 96.7%; in the assay on Rattus norvegicus [22] it was 99.3%; in the assay on Rattus norvegicus [23], 28%; in the assay on Rattus norvegicus [24] it was 62.1%.
Regarding `CC1(C)CCC[C@@]2(C)C1CC=C1COC[C@@H]12` (some centres not stated), the Inhibition in the assay with Rattus norvegicus [25] came out at 29.1%.
`COC(=O)C1=CCC2C(C)(C)CCC[C@]2(C)[C@H]1C(=O)OC` (some centres not stated) had an Inhibition in the assay on Rattus norvegicus [26] of 37.8%.
On to `CC1(C)CCC[C@@]2(C)C1CC=C(C(=O)O)[C@@H]2C(=O)O` (some centres not stated), for which the Inhibition in the assay with Rattus norvegicus [27] amounted to 47.7%.

(Values after ChEMBL document CHEMBL1135049, “Protective effects of polygodial and related compounds on ethanol-induced gastric mucosal lesions in rats: structural requirements and mode of action” (2002).)
